One may read the inhibition as the relative decrease from the control value, in per cent.

Test [1] deals with Normal human epidermal keratinocytes (NHEK). As to the kind of experiment: NHEK, UVB, and protein carbonylation assay. It is filed as cell-based. Particulars: 5 μg/mL; for inhibition at 5 µg/mL: Homo sapiens, light or radiation study, n = 2, read-out: PC inhibition (%); for PC inhibition (%): n = 2. The text has this:
The antioxidant(s) are preferably selected from those which protect against and/or prevent protein carbonylation (PC), protein glycation, lipidation, lipid glycation, protein alkylation, and/or lipid alkylation. Our system of evaluation from US 2006/0171886 A1, which may be modified to include a protein carbonylation, protein glycation, and/or protein alkylation analysis, may be used to evaluate the effectiveness of substances. Test results for selected antioxidants in the protection of human skin against protein carbonylation are shown below in Table 2.

Test [2] shares this test system. The test can be described thus: NHEK, UVB, and DNA damage analysis assay. It is filed as cell-based. The settings on record: 5 μg/mL; for inhibition at 5 µg/mL: Homo sapiens, light or radiation study; for 8-oxoG inhibition (%) / CPD inhibition (%): n = 2.
The test system of test [3] is cyclobutane pyrimidine dimer (CPD) and 8-oxo-7,8-dihydro-2′-deoxyguanosine (8OHdG) formation, and protein carbonylation. The test can be described thus: Combined protection score (CPD, 8OHdG, protein carbonylation), normalized for concentration. The settings on record: for Total Score: a maximum total score is 60.
The mark [4] stands for this setting: n = 2, read-out: 8-oxoG inhibition (%).
Setting [5] is: n = 2, read-out: CPD inhibition (%).

For the molecule `O=C(/C=C/c1ccc(O)c(O)c1)O[C@@H]1C[C@](O)(C(=O)O)C[C@@H](O)[C@H]1O` [Chlorogenic Acid], the inhibition at 5 µg/mL in test [1] worked out at 0%; in test [2] (setting [4]) it was 52.5%; in test [2] (setting [5]), 36%.

As to `O=C(O[C@@H]1Cc2c(O)cc(O)cc2O[C@@H]1c1cc(O)c(O)c(O)c1)c1cc(O)c(O)c(O)c1` [Epigallocatechin Gallate], the “PC inhibition (%)” value in test [1] was 100%. For the same molecule, in test [2], the “8-oxoG inhibition (%)” value was 41.9% and the “CPD inhibition (%)” value is on record as 44.5%. Besides, in test [3], the “8oxo Score” value was 18, the “CPDs Score” value amounted to 15, the “PC Score” value is recorded as 3 and the “Total Score” value worked out at 36.

As to `COc1cc(/C=C/C(=O)O)ccc1O` [Ferulic Acid], the inhibition at 5 µg/mL in test [1] came out at 0%. For the same molecule, the inhibition at 5 µg/mL in test [2] (setting [4]) was found to be 41.1%. For the same molecule, in test [2] (setting [5]), the inhibition at 5 µg/mL worked out at 15.7%. Also, in test [3], the “8oxo Score” value is listed as 19, the “CPDs Score” value is 17, the “PC Score” value stood at 10 and the “Total Score” value stood at 46.

On to `O=C1O[C@H]([C@@H](O)CO)C(O)=C1O` [L-Ascorbic Acid], for which the inhibition at 5 µg/mL in test [1] came out at 87.2%. The inhibition at 5 µg/mL in test [2] (setting [4]) amounted to 44.1%. Also, the inhibition at 5 µg/mL in test [2] (setting [5]) worked out at 33.1%. Further, in test [3], the “8oxo Score” value came out at 20, the “CPDs Score” value is reported as 16, the “PC Score” value is given as 0 and the “Total Score” value was determined as 36.

`NCCC(=O)N[C@@H](Cc1cnc[nH]1)C(=O)O` [L-Carnosine]: the “PC inhibition (%)” value in test [1] worked out at 100%. Further, in test [2], the “8-oxoG inhibition (%)” value came out at 45.0% and the “CPD inhibition (%)” value was 51.6%. For the same molecule, in test [3], the “8oxo Score” value was determined as 17, the “CPDs Score” value is given as 18, the “PC Score” value was 17 and the “Total Score” value worked out at 52.

As for `C[N+](C)(C)[C@@H](Cc1c[nH]c(=S)[nH]1)C(=O)[O-]` [L-Ergothioneine], in test [1], the “PC inhibition (%)” value is recorded as 100%. Also, in test [3], the “8oxo Score” value is reported as 14, the “CPDs Score” value turned out to be 17, the “PC Score” value worked out at 16 and the “Total Score” value is given as 47.

For the molecule `O=c1c(O)c(-c2ccc(O)c(O)c2)oc2cc(O)cc(O)c12` [Quercetin], the inhibition at 5 µg/mL turned out to be 0% in test [1], 42.4% in test [2] (setting [4]) and 45.7% in test [2] (setting [5]).

Take `Oc1ccc(C=Cc2cc(O)cc(O)c2)cc1` [Resveratrol]: the inhibition at 5 µg/mL in test [1] worked out at 0%. For the same molecule, in test [2] (setting [4]), the inhibition at 5 µg/mL is 40.6%. In test [2] (setting [5]), the inhibition at 5 µg/mL stood at 51.9%. Moreover, in test [3], the “8oxo Score” value turned out to be 18, the “CPDs Score” value stood at 17, the “PC Score” value is listed as 12 and the “Total Score” value stood at 47.

Take `Cc1c(C)c2c(c(C)c1O)CC[C@@](C)(CCC[C@H](C)CCC[C@H](C)CCCC(C)C)O2` [α-Tocopherol]: in test [3], the “8oxo Score” value is reported as 18, the “CPDs Score” value stood at 16, the “PC Score” value turned out to be 12 and the “Total Score” value is listed as 46.

The record behind these values is patent US20160106654A1, “ADDITIVE OR SYNERGISTIC SUNSCREEN, ANTIOXIDANT, AND DNA REPAIR ENZYME COMPOSITION” (US CosmeceuTechs, LLC, priority 2014, published 2016).
